Reference: US20260193264A1, “BENZOYPARAZINE PYRAZINES AND THEIR USES” (FOGHORN THERAPEUTICS INC., priority 2022, published 2026)

Key:
[1] = molecular target: T1, HiBiT-BRM fusion protein in stable HeLa cell line (Homo sapiens, UniProt P51531); assay: HiBiT-BRM cell-based degradation assay (Nano-Glo HiBiT Lytic Detection, 24 h); parameters: DC50: scale not given here; conditions: HeLa HiBiT-BRM cells; for DC50: read-out: BRM HiBit Degradation IC50; for BRM HiBit Degradation Maximum (%): top dose 30 μM
T1 construct: expressed in transfected cells
T1 sequence (P51531 whole entry, the tested form may be a part): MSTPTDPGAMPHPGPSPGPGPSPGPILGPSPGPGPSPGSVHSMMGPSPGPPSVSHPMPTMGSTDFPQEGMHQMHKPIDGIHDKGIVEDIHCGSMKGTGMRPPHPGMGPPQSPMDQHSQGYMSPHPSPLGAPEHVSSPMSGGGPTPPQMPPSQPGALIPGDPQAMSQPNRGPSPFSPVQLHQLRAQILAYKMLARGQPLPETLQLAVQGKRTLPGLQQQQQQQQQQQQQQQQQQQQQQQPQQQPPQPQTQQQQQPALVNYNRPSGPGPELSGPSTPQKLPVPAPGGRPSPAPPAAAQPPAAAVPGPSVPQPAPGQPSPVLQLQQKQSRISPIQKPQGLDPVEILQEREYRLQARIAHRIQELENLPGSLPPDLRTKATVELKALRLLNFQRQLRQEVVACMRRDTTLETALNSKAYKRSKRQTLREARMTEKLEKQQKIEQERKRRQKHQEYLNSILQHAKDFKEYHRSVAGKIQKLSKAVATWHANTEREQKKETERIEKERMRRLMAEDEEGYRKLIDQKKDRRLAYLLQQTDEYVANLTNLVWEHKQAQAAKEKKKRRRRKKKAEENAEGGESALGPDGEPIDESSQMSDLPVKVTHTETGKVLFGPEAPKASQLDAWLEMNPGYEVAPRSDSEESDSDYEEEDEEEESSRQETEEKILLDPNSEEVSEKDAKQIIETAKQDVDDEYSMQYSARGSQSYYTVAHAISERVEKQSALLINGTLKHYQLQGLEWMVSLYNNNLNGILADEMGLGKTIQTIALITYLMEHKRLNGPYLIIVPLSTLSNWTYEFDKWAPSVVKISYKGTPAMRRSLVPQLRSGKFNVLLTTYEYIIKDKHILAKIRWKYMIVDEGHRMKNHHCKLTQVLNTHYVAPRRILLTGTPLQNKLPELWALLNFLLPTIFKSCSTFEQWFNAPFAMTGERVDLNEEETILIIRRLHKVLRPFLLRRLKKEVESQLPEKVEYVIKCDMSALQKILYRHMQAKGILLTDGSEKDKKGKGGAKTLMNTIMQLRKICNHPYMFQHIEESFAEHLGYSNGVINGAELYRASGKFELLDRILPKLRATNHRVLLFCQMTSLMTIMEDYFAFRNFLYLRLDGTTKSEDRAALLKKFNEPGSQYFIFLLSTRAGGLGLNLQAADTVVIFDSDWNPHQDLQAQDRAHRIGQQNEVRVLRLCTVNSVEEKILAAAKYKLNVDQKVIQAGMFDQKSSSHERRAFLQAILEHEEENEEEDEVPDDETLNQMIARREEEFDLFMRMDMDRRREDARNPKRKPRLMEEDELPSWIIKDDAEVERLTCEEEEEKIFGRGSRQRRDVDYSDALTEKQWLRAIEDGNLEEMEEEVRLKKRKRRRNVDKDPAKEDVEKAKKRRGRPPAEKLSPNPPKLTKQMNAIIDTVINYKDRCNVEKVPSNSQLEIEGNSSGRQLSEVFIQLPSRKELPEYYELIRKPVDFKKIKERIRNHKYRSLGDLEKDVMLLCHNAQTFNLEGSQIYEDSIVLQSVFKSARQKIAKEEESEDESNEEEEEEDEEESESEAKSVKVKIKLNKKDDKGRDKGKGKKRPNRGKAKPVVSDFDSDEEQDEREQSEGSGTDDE
In short: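 Stable HiBiT-BRM HeLa cells treated 24 h with 10-point 3-fold dilutions, top final dose 30 μM, in duplicate. Luminescence read after lytic LgBiT reagent. Percent degradation was normalised to DMSO (high control) and 2 μM reference BRM/BRG1 degrader (low control).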

[2] = molecular target: T2, HiBit-BRG1 fusion protein in stable HeLa cell line expressing HiBit-BRG1 and LgBit (Homo sapiens, UniProt P51532); assay: HiBiT-BRG1 cell-based degradation assay (Nano-Glo HiBiT, 24 h); conditions: HeLa HiBit-BRG1/LgBit cells; for Dmax: top dose 30 μM, read-out: BRG1 HiBit Degradation Maximum (%); for DC50: read-out: BRMG1 HiBit Degradation IC50
T2 construct: expressed in transfected cells
T2 sequence (P51532 whole entry, the tested form may be a part): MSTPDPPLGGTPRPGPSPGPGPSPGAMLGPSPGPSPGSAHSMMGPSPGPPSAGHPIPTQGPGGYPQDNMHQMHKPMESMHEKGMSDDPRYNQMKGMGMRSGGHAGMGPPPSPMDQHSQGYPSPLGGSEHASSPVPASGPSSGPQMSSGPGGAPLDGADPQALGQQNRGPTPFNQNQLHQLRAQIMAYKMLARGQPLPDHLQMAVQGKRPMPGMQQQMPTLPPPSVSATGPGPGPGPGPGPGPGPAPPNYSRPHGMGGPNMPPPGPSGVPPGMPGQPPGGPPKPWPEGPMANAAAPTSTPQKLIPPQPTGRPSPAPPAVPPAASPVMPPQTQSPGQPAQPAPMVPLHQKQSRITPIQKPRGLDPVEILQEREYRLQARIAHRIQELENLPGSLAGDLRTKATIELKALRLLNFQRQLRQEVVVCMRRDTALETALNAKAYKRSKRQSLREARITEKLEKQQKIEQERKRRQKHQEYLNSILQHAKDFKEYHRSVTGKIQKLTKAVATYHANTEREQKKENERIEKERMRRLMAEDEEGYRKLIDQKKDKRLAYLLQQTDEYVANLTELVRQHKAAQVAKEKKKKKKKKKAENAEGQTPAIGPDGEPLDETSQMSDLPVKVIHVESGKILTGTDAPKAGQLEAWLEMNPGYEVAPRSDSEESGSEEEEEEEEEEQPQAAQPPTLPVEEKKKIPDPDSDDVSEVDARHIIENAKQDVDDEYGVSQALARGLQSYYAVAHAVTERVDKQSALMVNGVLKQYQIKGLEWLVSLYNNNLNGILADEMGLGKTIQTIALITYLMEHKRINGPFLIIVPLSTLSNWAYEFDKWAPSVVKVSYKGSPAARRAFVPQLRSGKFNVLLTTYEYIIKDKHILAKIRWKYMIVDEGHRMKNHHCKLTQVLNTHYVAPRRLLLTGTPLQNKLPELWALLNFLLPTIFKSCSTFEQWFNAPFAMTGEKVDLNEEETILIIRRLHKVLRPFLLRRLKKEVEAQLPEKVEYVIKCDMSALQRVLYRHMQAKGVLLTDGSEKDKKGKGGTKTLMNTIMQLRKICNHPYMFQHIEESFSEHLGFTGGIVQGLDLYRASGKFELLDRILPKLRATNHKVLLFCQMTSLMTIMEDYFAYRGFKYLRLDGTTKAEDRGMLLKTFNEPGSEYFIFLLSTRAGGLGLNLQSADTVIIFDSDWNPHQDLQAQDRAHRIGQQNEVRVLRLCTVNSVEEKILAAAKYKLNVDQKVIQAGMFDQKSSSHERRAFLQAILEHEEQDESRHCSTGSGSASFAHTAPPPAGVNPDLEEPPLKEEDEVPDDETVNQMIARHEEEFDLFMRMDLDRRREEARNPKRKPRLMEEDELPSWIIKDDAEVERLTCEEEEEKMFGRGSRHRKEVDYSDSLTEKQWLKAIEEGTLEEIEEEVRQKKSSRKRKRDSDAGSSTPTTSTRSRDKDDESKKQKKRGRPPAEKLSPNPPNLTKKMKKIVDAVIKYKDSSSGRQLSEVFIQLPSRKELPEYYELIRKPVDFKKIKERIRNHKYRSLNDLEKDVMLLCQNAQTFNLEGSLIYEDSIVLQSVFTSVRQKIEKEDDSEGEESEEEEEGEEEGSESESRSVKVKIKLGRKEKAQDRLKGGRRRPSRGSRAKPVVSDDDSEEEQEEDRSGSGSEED
In short: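 Stable HeLa line co-expressing HiBiT-BRG1 and LgBiT, compound-treated 24 h; luminescence read after Nano-Glo HiBiT lytic reagent. % degradation normalised between DMSO (high control) and 2 μM reference BRM/BRG1 degrader (low control).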

Structure (SMILES)	DC50 [1] [nM]	BRM HiBit Degradation Maximum (%) [1]	Dmax [2] [%]	DC50 [2] [nM]
Cc1ncsc1-c1ccc([C@H](C)NC(=O)[C@@H]2C[C@@H](O)CN2C(=O)[C@@H](c2cc(N3CC4(CN(c5cc(C6CC6)c6cc(-c7ccccc7O)nnc6c5)C4)C3)no2)C(C)C)cc1 [Compound 125, (2S,4R)-1-((R)-2-(3-(6-(5-cyclopropyl-3-(2-hydroxyphenyl)cinnolin-7-yl)-2,6-diazaspiro[3.3]heptan-2-yl)isoxazol-5-yl)-3-methylbutanoyl)-4-hydroxy-N-((S)-1-(4-(4-methylthiazol-5-yl)phenyl)ethyl)pyrrolidine-2-carboxamide]	< 10	A (“A” indicates maximum degradation ≥75%)	< 50	
Cc1ncsc1-c1ccc([C@H](C)NC(=O)[C@@H]2C[C@@H](O)CN2C(=O)[C@@H](c2cc(N3CC4(C3)CN(c3cc5nnc(-c6ccccc6O)cc5cc3C3CC3)C4)no2)C(C)C)cc1 [Compound 126, (2S,4R)-1-((R)-2-(3-(6-(6-cyclopropyl-3-(2-hydroxyphenyl)cinnolin-7-yl)-2,6-diazaspiro[3.3]heptan-2-yl)isoxazol-5-yl)-3-methylbutanoyl)-4-hydroxy-N-((S)-1-(4-(4-methylthiazol-5-yl)phenyl)ethyl)pyrrolidine-2-carboxamide]	< 10	A (“A” indicates maximum degradation ≥75%)	> 75	< 10
Cc1ncsc1-c1ccc([C@H](C)NC(=O)[C@@H]2C[C@@H](O)CN2C(=O)[C@@H](c2cc(N3CC4(CN(c5ccc6cc(-c7ccccc7O)nnc6c5)CCO4)C3)no2)C(C)C)cc1 [Compound 127, (2S,4R)-4-hydroxy-1-((R)-2-(3-(8-(3-(2-hydroxyphenyl)cinnolin-7-yl)-5-oxa-2,8-diazaspiro[3.5]nonan-2-yl)isoxazol-5-yl)-3-methylbutanoyl)-N-((S)-1-(4-(4-methylthiazol-5-yl)phenyl)ethyl)pyrrolidine-2-carboxamide]	< 10	A (“A” indicates maximum degradation ≥75%)	> 75	< 10
Cc1ncsc1-c1ccc([C@H](C)NC(=O)[C@@H]2C[C@@H](O)CN2C(=O)[C@H](C(C)C)n2cc(-c3ccc4nnc(-c5ccccc5O)cc4c3)nn2)cc1 [Compound 128, (2S,4R)-4-hydroxy-1-((S)-2-(4-(3-(2-hydroxyphenyl)cinnolin-6-yl)-1H-1,2,3-triazol-1-yl)-3-methylbutanoyl)-N—((S)-1-(4-(4-methylthiazol-5-yl)phenyl)ethyl)pyrrolidine-2-carboxamide]	< 10	A (“A” indicates maximum degradation ≥75%)	> 75	< 10
Cc1ncsc1-c1ccc([C@H](C)NC(=O)[C@@H]2C[C@@H](O)CN2C(=O)[C@@H](c2cc(N3CC4(CN(c5ccc6nnc(-c7ccccc7O)cc6c5)CCO4)C3)no2)C(C)C)cc1 [Compound 129, (2S,4R)-4-hydroxy-1-((R)-2-(3-(8-(3-(2-hydroxyphenyl)cinnolin-6-yl)-5-oxa-2,8-diazaspiro[3.5]nonan-2-yl)isoxazol-5-yl)-3-methylbutanoyl)-N-((S)-1-(4-(4-methylthiazol-5-yl)phenyl)ethyl)pyrrolidine-2-carboxamide]	< 10	A (“A” indicates maximum degradation ≥75%)	< 50	
Cc1ncsc1-c1ccc([C@H](C)NC(=O)[C@@H]2C[C@@H](O)CN2C(=O)[C@@H](c2cc(N3CCC4(CN(c5ccc6cc(-c7ccccc7O)nnc6c5)C4)C3)no2)C(C)C)cc1 [Compound 130, (2S,4R)-4-hydroxy-1-((R)-2-(3-(2-(3-(2-hydroxyphenyl)cinnolin-7-yl)-2,6-diazaspiro[3.4]octan-6-yl)isoxazol-5-yl)-3-methylbutanoyl)-N-((S)-1-(4-(4-methylthiazol-5-yl)phenyl)ethyl)pyrrolidine-2-carboxamide]	< 10	A (“A” indicates maximum degradation ≥75%)	> 75	< 10
Cc1ncsc1-c1ccc([C@H](C)NC(=O)[C@@H]2C[C@@H](O)CN2C(=O)[C@@H](c2cc(N3C[C@H]4CN(c5ccc6cc(-c7ccccc7O)nnc6c5)C[C@H]4C3)no2)C(C)C)cc1 [Compound 131, (2S,4R)-4-hydroxy-1-((R)-2-(3-((3aR,6aS)-5-(3-(2-hydroxyphenyl)cinnolin-7-yl)hexahydropyrrolo[3,4-c]pyrrol-2(1H)-yl)isoxazol-5-yl)-3-methylbutanoyl)-N-((S)-1-(4-(4-methylthiazol-5-yl)phenyl)ethyl)pyrrolidine-2-carboxamide]	< 10	A (“A” indicates maximum degradation ≥75%)	> 50	
Cc1ncsc1-c1ccc([C@H](C)NC(=O)[C@@H]2C[C@@H](O)CN2C(=O)[C@@H](c2cc(N3CC4(CCN(c5ccc6cc(-c7ccccc7O)nnc6c5)C4)C3)no2)C(C)C)cc1 [Compound 132, (2S,4R)-4-hydroxy-1-((R)-2-(3-(6-(3-(2-hydroxyphenyl)cinnolin-7-yl)-2,6-diazaspiro[3.4]octan-2-yl)isoxazol-5-yl)-3-methylbutanoyl)-N-((S)-1-(4-(4-methylthiazol-5-yl)phenyl)ethyl)pyrrolidine-2-carboxamide]	< 10	A (“A” indicates maximum degradation ≥75%)	> 75	< 10
CC(C)[C@@H](C(=O)N1C[C@H](O)C[C@H]1C(=O)N[C@@H](C)c1ccccc1)c1cc(-c2ccc3nnc(-c4ccccc4O)cc3c2)no1 [Compound 133, (2S,4R)-4-hydroxy-1-((R)-2-(3-(3-(2-hydroxyphenyl)cinnolin-6-yl)isoxazol-5-yl)-3-methylbutanoyl)-N-((S)-1-phenylethyl)pyrrolidine-2-carboxamide]	< 10	A (“A” indicates maximum degradation ≥75%)	> 75	> 10
CC(C)[C@@H](C(=O)N1C[C@H](O)C[C@H]1C(=O)N[C@@H](C)c1ccc(F)cc1)c1cc(-c2ccc3nnc(-c4ccccc4O)cc3c2)no1 [Compound 134, (2S,4R)-N-((S)-1-(4-fluorophenyl)ethyl)-4-hydroxy-1-((R)-2-(3-(3-(2-hydroxyphenyl)cinnolin-6-yl)isoxazol-5-yl)-3-methylbutanoyl)pyrrolidine-2-carboxamide]	< 10	A (“A” indicates maximum degradation ≥75%)	> 75	> 10
Cc1ncsc1-c1ccc([C@H](C)NC(=O)[C@@H]2C[C@@H](O)CN2C(=O)[C@@H](c2cc(N3CCN([C@@H]4CCN(Cc5ccc6nnc(-c7ccccc7O)cc6c5)CC4(F)F)CC3)no2)C(C)C)cc1 [Compound 136, (2S,4R)-1-((R)-2-(3-(4-((R)-3,3-difluoro-1-((3-(2-hydroxyphenyl)cinnolin-6-yl)methyl)piperidin-4-yl)piperazin-1-yl)isoxazol-5-yl)-3-methylbutanoyl)-4-hydroxy-N-((S)-1-(4-(4-methylthiazol-5-yl)phenyl)ethyl)pyrrolidine-2-carboxamide]	< 10	A (“A” indicates maximum degradation ≥75%)	> 75	< 10
